Data as given in patent US20080166766A1, “Genetic incorporation of unnatural amino acids into proteins in mammalian cells” (The Scripps Research Institute, priority 2006, published 2008).
Blank lines part the entries; values can stand above or below the molecule they belong to.

Assays:
position 37 of GFP = assay: Fidelity of unnatural amino acid incorporation by mass spectrometry (nano-RP LC/MS/MS, ESI TOF-MS); details: nano-RP LC/MS/MS of tryptic fragments, mutant GFP from T-REx CHO cells
Description: To further characterize GFP-pMpa, the mutant protein was expressed in T-REx™ CHO cells transiently transfected with both pSWAN-pMpaRS and pSWAN-GFP37TAG. The protein was purified using an anti-myc antibody agarose column and then separated by SDS-PAGE. The GFP-pMpa band from the SDS-PAGE gel was digested with trypsin and analyzed by nanoscale reversed-phase liquid chromatography/mass spectrometry/mass spectrometry (nano-RP LC/MS/MS). In parallel, wild type GFP was purified from cells transfected with pcDNA4-GFP and subjected to the same analysis.
Proteolysis of affinity purified proteins (performed for wild-type and pBpa samples) was carried out by overnight incubation of proteins at 37° C. with sequencing-grade modified trypsin (Promega) using a substrate/enzyme ratio of 10:1 (wt/wt) based on the estimated protein concentration in 100 mM triethylammonium bicarbonate buffer (pH 8.5). In-gel digestions (performed for pMpa, pAzpa, pApa, and pPpa samples) were performed according to a modified EMBL procedure (see the website for EMBL, Heidelberg, Germany, Bioanalytical Research Group). Briefly, gel slices were excised to approximately 1 mm×1 mm cubes, washed for 5 minutes with water, 15 minutes with acetonitrile, and dried in a vacuum centrifuge before being rehydrated at 0° C. for 30 minutes with 12.5 ng/μl of sequencing-grade modified trypsin in 50 mM triethylammonium bicarbonate buffer (pH 8.5). Excess buffer was removed and 20 μl of 50 mM triethylammonium bicarbonate buffer (pH 8.5) was added to the gel slices before incubating at 37° C. overnight. Peptides were extracted from the gel slices as described in the protocol.
(§1) Nano-RP LC/MS/MS was performed with an HPLC pump, autosampler (Agilent Technologies, Palo Alto, Calif.), and an LTQ Orbitrap hybrid mass spectrometer (ThermoElectron, San Jose, Calif.). Tryptic digests were loaded with a pressure bomb onto a 75 μm i.d. precolumn packed with 4 cm of 5-μm Monitor C18 particles (Column Engineering, Ontario, Calif.) at a flow rate of approximately 2 μl/min. The precolumn was then connected to the HPLC pump and after several minutes of washing with solvent A the analytical column with integrated emitter tip (360 μm O.D.×75 μm i.d; 10 cm of 5 μM C18, ˜5-μm tip) was connected in series. The chromatographic profile was from 100% solvent A (0.1% aqueous acetic acid) to 50% solvent B (0.1% acetic acid in acetonitrile) in 40 min; the flow rate through the analytical column was ca. 100 nl/min.
For data-dependent experiments, the mass spectrometer was programmed to first record a high-resolution Orbitrap scan then a full-scan ion trap spectrum (m/z 500-2,000). This was followed by 10 data-dependent MS/MS scans (relative collision energy=35%; 3-Da isolation window) triggered of the ion-trap scan and finally two targeted MS/MS scans. The first targeted MS/MS scan was set to isolate and fragment the doubly charged precursor ion of the predicted unnatural amino acid modified peptide
at m/z 752.3. The raw data were searched against the MSDB database using MASCOT (Matrixscience, London, UK) for protein identification and to find the scans containing the target peptides with the unnatural amino acids as variable modification. To estimate fidelity at Y*37 of GFP-pMpa, single ion chromatograms (doubly charged precursor ions at m/z 752.3 for the wt and 759.3 for pMpa) and selected ion chromatograms (y9, y11, and y12) were integrated using the Xcalibur software package (ThermoElectron, San Jose, Calif.).
Intact protein mass spectra were acquired on an automated LC/MS system (Waters, Milford, Mass.) consisting of a capillary LC with auto-sampler and a QTOF2 mass spectrometer. GFP-pMpa (0.1 mg/ml) was loaded onto a reversed-phase protein Captrap (Michrom Bioresources, Auburn, Calif.) for desalting with 0.1% acetic acid in water and eluted with 80% acetonitrile/0.1% acetic acid at 5 μl/min into the ESI source of the mass spectrometer. […]

[1] = Decay of azido amino acid seen in tandem MS of mutant GFP; assay type: physicochemical; details: mutant GFP containing pAzpa; azido group chemically reactive and photo-unstable
Protocol: The mutant GFP containing pAzpa was only weakly detectable. […] The data from all five mutant proteins indicate the high selectivity and fidelity of the incorporation of unnatural amino acids.
as §1

T-REx™ CHO cells = assay: Yield of purified mutant GFP containing unnatural amino acid (pSWAN two-plasmid system); assay type: cell-based, Chinese hamster; details: pMpa 10 mM, pApa 10 mM, pBpa 1 mM, pAzpa 5 mM, pPpa 1 mM in media, anti-myc column purified
Description: The pMpaRS gene was inserted directly after the non-regulated CMV promoter for efficient and continuous expression of pMpaRS. Another plasmid (pSWAN-GFP37TAG in FIG. 4B) containing both three tandem repeats of the BstRNACUA^Tyr gene and the GFP37TAG gene was also constructed. The gene encoding GFP37TAG was inserted after a Tet-regulated CMV promoter to minimize potential read-through of the nonsense amber codon caused by endogenous amber suppression in mammalian cells. These two plasmids were then assayed for their suppression efficiency. Because both plasmids contain three tandem repeats of the BstRNACUA^Tyr gene, varying the ratio of the two plasmids to increase the suppression level is not expected to change the total amount of the BstRNACUA^Tyr gene transfected into cells. Under optimized transfection conditions (0.5 μg of pSWAN-pMpaRS and 2.5 μg pSWAN-GFP37TAG per 2×10^6 cells), the suppression level is roughly two-fold higher than that using the three plasmids pUC18-3BstRNACUA^Tyr, pcDNA4-pMpaRS, and pcDNA4-GFP37TAG (the suppression level was determined by the number of fluorescent cells). Cells were grown for 1-2 days after induction and kept viable before harvesting. The yield of mutant GFP containing pMpa (GFP-pMpa) was also quantified. In the presence of 10 mM pMpa in the growth media, 1 μg of mutant GFP can be obtained from 2×10^7 adhesive T-REx™ CHO cells.
Transient transfection of T-REx™ CHO and 293 cells with the pSWAN-EcTyrRS variants and pSWAN-GFP37TAG (0.5 μg of pSWAN-EcTyrRS variant and 2.5 μg of pSWAN-GFP37TAG per 2×10^6 cells) all afforded roughly two-fold higher suppression levels than for the three plasmids pUC18-3BstRNACUA^Tyr, pcDNA4-EcTyrRS variant, and pcDNA4-GFP37TAG (with the exception of the pIpa specific variant). Mutant GFPs containing pApa, pBpa, pAzpa or pPpa were also expressed in T-REx™ CHO cells transfected with the pSWAN-EcTyrRS variants and pSWAN-GFP37TAG and grown in media containing the corresponding unnatural amino acid (pApa, 10 mM; pBpa, 1 mM; pAzpa, 5 mM; or pPpa, 1 mM) for 1-2 days, and purified using an anti-myc antibody column. The yields of the mutant proteins containing pApa and pAzpa were close to that for pMpa (˜1 μg per 2×10^7 cells), and the yields of mutant proteins containing pBpa and pPpa were somewhat lower (˜0.7 μg per 2×10^7 cells). Because the expression levels of EcTyrRS variants in T-REx™ CHO cells are similar, the lower yield of the mutant proteins containing pBpa and pPpa may be due to the low concentrations of unnatural amino acids in the media.
pSWAN-EcTyrRS variants and pSWAN-GFP37TAG were used to express mutant GFPs containing unnatural amino acids. T-REx™ CHO cells (Invitrogen™) were grown in 75 cm^2 tissue culture flasks (BD Biosciences) to 80-90% confluency and transfected with 2 μg of pSWAN-EcTyrRS and 10 μg pSWAN-GFP37TAG using […] FuGENE® 6. After overnight incubation, the media were changed to the fresh media containing the unnatural amino acid (pMpa, 10 mM; pApa, 10 mM; pBpa, 1 mM; pAzpa, 5 mM; and pPpa, 1 mM) and 1 μg/ml tetracycline. Cells were then grown for 1-2 days at 37° C. before harvesting, and then lysed with RIPA lysis buffer. The supernatant from the cell lysate was dialyzed against and equilibrated with PBS buffer before loading onto an anti-myc antibody agarose column (Sigma). The column was washed with 15 column volumes of PBS buffer and then eluted with 0.1 M ammonium hydroxide. The purified proteins were neutralized with 0.1 M acetic acid and analyzed by SDS-PAGE. […]

mammalian cells = assay: Cellular toxicity of heterologous synthetase expression; assay type: cell-based; details: under the growth conditions used

decay of the amino acid in mutant GFP (tandem MS) [1]: Most of pAzpa decays to pAmpa
Molecule: [N-]=[N+]=Nc1ccc(C[C@H](N)C(=O)O)cc1 [pAzpa, p-azidophenylalanine]
wild type peptide signals in tandem MS of mutant GFP sample (position 37 of GFP): No wild type signals could be detected
yield of mutant GFP containing the unnatural amino acid (T-REx™ CHO cells): ~1 μg per 2×10^7 cells

B1: pMpaRS: EcTyrRS variant Y37V/D182S/F183M that charges BstRNACUA^Tyr with pMpa (protein, UniProt P0AGJ9 2-424, looked up, variant Y37V D182S F183M)
Tyrosine--tRNA ligase: ASSNLIKQLQERGLVAQVTDEEALAERLAQGPIALVCGFDPTADSLHLGHLVPLLCLKRFQQAGHKPVALVGGATGLIGDPSFKAAERKLNTEETVQEWVDKIRKQVAPFLDFDCGENSAIAANNYDWFGNMNVLTFLRDIGKHFSVNQMINKEAVKQRLNREDQGISFTEFSYNLLQGYSMACLNKQYGVVLQIGGSDQWGNITSGIDLTRRLHQNQVFGLTVPLITKADGTKFGKTEGGAVWLDPKKTSPYKFYQFWINTADADVYRFLKFFTFMSIEEINALEEEDKNSGKAPRAQYVLAEQVTRLVHGEEGLQAAKRITECLFSGSLSALSEADFEQLAQDGVPMVEMEKGADLMQALVDSELQPSRGQARKTIASNAITINGEKQSDPEYFFKEEDRLFGRFTLLRRGKKNYCLICWK
cellular toxicity of heterologous expression (mammalian cells): did not show any apparent cellular toxicity
